In patent US12049474B2, “Nucleoside prodrugs and uses related thereto” (Emory University, priority 2019, dated 2024):
Where a name gives a salt, the structure may show the parent alone. Read-outs that look alike come from different tables or passages of the source.

Legend:
HIV = experiment: microbe, parasite or virus in culture; type: cell-based; conditions: italicized results: absence of human serum albumin
CYP2D6 = CYP2D6 (Homo sapiens (Human), UniProt P10635); experiment: biochemical; type: biochemical; conditions: human recombinant CYP2D6, AMMC substrate; read-out: CYP450 IC50 2D6
Protocol: (§1) The CYP450 inhibition assays utilized microsomes from insect cells expressing human recombinant individual cDNA-expressed CYP isoforms 3A4 and 2D6, as well as the fluorogenic probe that produces fluorescent metabolite. Standard inhibitors were co-incubated with fluorogenic substrates and their inhibitory potential (IC50) was determined. Assay conditions in terms of CYP450 protein concentration and time of incubation were standardized, enzyme kinetics parameters of each fluorescent probe substrate were estimated and IC50 values of inhibitors were determined and validated on different days to check reproducibility.
(§2) A 100 mM sodium phosphate buffer was prepared and adjusted to pH 7.4. In a separate falcon tube, a 2× enzyme/substrate (E/S) solution was prepared in phosphate buffer. The final concentration of CYP2D6 (CORNING®) and […] (AMMC) was 10 nM and 4 μM, and CYP3A4 (CORNING®) and 7-benzyloxy-4-(trifluoromethyl) coumarin (BFC) was 20 nM and 40 μM, respectively. In a separate falcon tube, a 2×NADPH regenerating system (NRS) was prepared in phosphate buffer. The final concentration for each component in the assay was as follows: • CYP2D6 assay: 0.008 mM NADPH, 3.3 mM glucose 6-phosphate, 0.4 U of glucose-6-phosphate dehydrogenase per mL
(§3) Both enzymatic assays were conducted in a 96-well microtiter plate (Black, CORNING® COSTAR®) with a final volume of 100 μL. Preparation of the plate began with the addition of 74 μL of the E/S in the first well, and 50 μL to all subsequent wells (from 2-11). The test compounds (1 μL) were dissolved in the first well to give the first row a final volume of 75 μL. A 1:3 serial dilution of the test compound was conducted by removing 25 μL from the first well and diluting it with the second and so forth until the tenth row. Final concentrations yielded a range from 200 μM-0.01 μM. Well no. 11 contained no inhibitor, and well no. 12 contained no enzyme. Both were used as controls for background fluorescence. The plate was incubated for 30 min at 37° C. After incubation, the reaction was initiated by the addition of 50 μL of the 2×NRS to each well.
Immediately (within 1 min) the fluorescence was measured using a microplate reader (BIOTEK® Synergy Neo2). CYP2D6 was monitored at Ex/Em=410/460 nm, and CYP3A4 monitored at Ex/Em=410/538 nm in kinetic mode that scanned every 5 min for 60 mins. Data was exported and analyzed using Graph Pad Prism 7. […] The IC50 value was derived after the data was fitted on a 10-point curve using a four-parameter logistic regression model.

CYP3A4 = CYP3A4 (Homo sapiens (Human), UniProt P08684); experiment: Fluorometric CYP450 enzyme inhibition assay, CYP3A4; type: biochemical; conditions: human recombinant CYP3A4, BFC substrate; read-out: CYP450 IC50 3A4
Protocol: as §1, §2
as §3, with “The test compounds (1 μL) were dissolved in the first well to give the first row a final volume of 75 μL.” left out
Immediately (within 1 min) the fluorescence was measured using a microplate reader (BIOTEK® Synergy Neo2). […] Data was exported and analyzed using Graph Pad Prism 7. […] The IC50 value was derived after the data was fitted on a 10-point curve using a four-parameter logistic regression model.

[1] = Metabolic stability assay in human liver microsomes (HLM); type: in vitro ADME; conditions: NADPH, sampled 0-120 min; for HLM t1/2: 3 μM test compound
Protocol: The LC-MS/MS analysis was performed using Agilent 1260 Infinity II HPLC, coupled with an Agilent G6460 triple quadrupole mass spectrometer (Agilent Technologies, USA). All the data were acquired employing Agilent 6460 Quantitative Analysis data processing software.
Reverse-phase HPLC separation for each compound was achieved either on an Agilent Porshell 120 EC-C8 column (2.1×50 mm, 2.7 μm), or on an Agilent Zorbax XDB C18 column (2.1×50 mm, 3.5 μm) with a mobile phase composed of methanol-water-formic acid or acetonitrile-water-formic acid (0.1%) at a flow rate of 0.5 mL/min (changes for some compounds). Each method was developed in the presence of an internal standard (ISTD) d5-7-ethoxy coumarin. The column temperature was maintained at 40° C. for most of the samples otherwise noted. The detection was operated in the Agilent JetStream electrospray positive ionization using multiple reaction monitoring mode (MRM).
Other MS conditions were as follows: dwell time 100 ms; gas flow 10 L/min; nebulizer pressure 45 psi; delta EMV 200 V; fragmentor voltage and collision energy for individual compounds vary.
Test compounds were dissolved in 100% DMSO or 100% MeOH to make 10 mM stock solutions. Verapamil (Sigma Aldrich) aided as a positive control and was dissolved in 100% DMSO to make 10 mM stock solutions. The 10 mM stock solution of test and control compounds were further diluted in potassium phosphate buffer (100 mM, pH 7.4) to 500 μM to ensure the organic solvent content was <0.2%. Human liver microsomes (HLMs) were purchased from Xenotech at 20 mg/mL. NADPH (Sigma Aldrich) 10 mM stocks were prepared in deionized water.
The HLM assay was prepared in a 1.5 mL Eppendorf tube with a final volume of 1100 μL for duplicate runs. Each reaction contained phosphate buffer (928.4 μL), liver microsomes (55 μL), and test compound resulting in a final concentration of 3 μM (6.6 μL of 500 μM). The reaction was initiated with 110 μL of 10 mM NADPH. Aliquots (100 μL) were removed in duplicate at 0, 15, 30, 60, 120 min (for prodrug compounds) and 0, 5, 10, 15, 30 min (verapamil, positive control compound) time intervals and quenched in cold […] of 100% methanol which contained internal standard (ISTD: d5-7-ethoxy coumarin 4 μM). Before centrifugation each of the aliquoted tubes were vortexed to make sure compounds were in the solution. The aliquots were centrifuged at 12,000 g for 5 min and the supernatant removed and placed in an LC-MS vial. Each time point was assessed using LC-MS and the area, based on the extracted ion, was integrated with respect to the ISTD. Positive controls were conducted at a final volume of 550 μL to give each time point in a single run. A no-NADPH negative control with test or control compound was performed in a single run (150 μL) at the longest time point. Controls were processed and analyzed like the test compounds. Each time point was run in duplicates followed by in-between blank washes to avoid the carryover and to equilibrate the column.

[2] = dogs, cited from earlier work
HEK293 cells = conditions: 50% cytotoxic concentration; italicized results: absence of human serum albumin

CYP3A4, sequence (P08684 whole entry): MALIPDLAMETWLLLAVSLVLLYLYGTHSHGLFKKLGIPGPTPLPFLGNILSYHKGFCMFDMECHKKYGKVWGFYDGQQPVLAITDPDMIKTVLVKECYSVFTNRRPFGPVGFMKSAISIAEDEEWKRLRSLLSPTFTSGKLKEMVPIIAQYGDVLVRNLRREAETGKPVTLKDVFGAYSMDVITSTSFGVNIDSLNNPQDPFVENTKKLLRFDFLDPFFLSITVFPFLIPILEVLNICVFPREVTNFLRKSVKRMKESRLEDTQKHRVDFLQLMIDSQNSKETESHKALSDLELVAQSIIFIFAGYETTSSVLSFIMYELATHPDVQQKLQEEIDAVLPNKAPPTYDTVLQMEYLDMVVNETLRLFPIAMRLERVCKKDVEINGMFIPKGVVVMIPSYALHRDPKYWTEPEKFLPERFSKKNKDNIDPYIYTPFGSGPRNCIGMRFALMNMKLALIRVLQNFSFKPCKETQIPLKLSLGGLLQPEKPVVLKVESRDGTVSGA
CYP2D6, sequence (P10635 whole entry, canonical isoform): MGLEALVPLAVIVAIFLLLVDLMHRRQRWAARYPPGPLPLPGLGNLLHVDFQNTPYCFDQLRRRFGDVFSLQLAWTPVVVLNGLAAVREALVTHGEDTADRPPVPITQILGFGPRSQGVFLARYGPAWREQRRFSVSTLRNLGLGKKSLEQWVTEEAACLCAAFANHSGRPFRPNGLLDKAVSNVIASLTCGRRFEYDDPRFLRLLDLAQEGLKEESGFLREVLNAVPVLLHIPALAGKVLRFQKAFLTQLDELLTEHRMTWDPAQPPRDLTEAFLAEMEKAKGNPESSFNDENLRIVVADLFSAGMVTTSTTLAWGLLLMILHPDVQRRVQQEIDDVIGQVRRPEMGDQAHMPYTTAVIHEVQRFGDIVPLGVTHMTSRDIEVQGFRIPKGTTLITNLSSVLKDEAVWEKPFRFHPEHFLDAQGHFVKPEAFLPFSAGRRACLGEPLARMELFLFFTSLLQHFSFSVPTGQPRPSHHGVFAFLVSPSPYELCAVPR

| SMILES | IC50 (HIV; Human immunodeficiency virus 1, HEK293, read-out: HIV IC50, pseudoviral particles, HEK293 cells) | IC50 (HIV; read-out: HIV IC50, pseudoviral particles, HEK293 cells) | IC50 (CYP2D6) | IC50 (CYP3A4) | half-life at 3 µM ([1]; pH 7.4, 3 μM test compound, read-out: HLM t1/2) | fraction of dose converted to plasma TFV ([2]; single oral dose) | fraction of dose sequestered for toxic side effects ([2]; single oral dose) | fraction of dose that achieved access to plasma unscathed ([2]; single oral dose) | fraction of a single oral dose extracted by the liver [2] | HLM t1/2 [1] | melting point | CC50 (HEK293 cells) |
| --- | --- | --- | --- | --- | --- | --- | --- | --- | --- | --- | --- | --- |
| CC(C)OC(=O)[C@H](C)N[P@](=O)(CO[C@H](C)Cn1cnc2c(N)ncnc21)Oc1ccccc1 [TAF, tenofovir alafenamide fumarate] | 0.002 µM | 0.001 µM | > 50 µM | 21 µM | 26 min | 17% | 82% | 18% | 65% | – | – | – |
| CCCCCCCCCCCCCCCCCCOP(=O)(O)CO[C@H](C)Cn1cnc2c(N)ncnc21.N [MD-1-105, Ammonium Octadecyl (R)-(((1-(6-amino-9H-purin-9-yl)propan-2-yl)oxy)methyl)phosphonate] | – | – | 20 µM | 52.9 µM | – | – | – | – | – | 13 min | 154 to 184 °C (dec.) | 84.1 µM |
| CCCCCCCCCCCCCCCOP(=O)(O)CO[C@H](C)Cn1cnc2c(N)ncnc21.N [MD-1-106, Ammonium Pentadecyl (R)-(((1-(6-amino-9H-purin-9-yl)propan-2-yl)oxy)methyl)phosphonate] | – | – | 22 µM | 54.9 µM | – | – | – | – | – | 13 min | 162 to 190 °C (dec.) | > 100 µM |
